One assay deals with T1, RORγ-LBD (Homo sapiens, UniProt P51449).
T1 construct: made in house; host or cells: SF9 cells (baculovirus); used as diluted lysate
T1 sequence (P51449 269-508 limits assumed): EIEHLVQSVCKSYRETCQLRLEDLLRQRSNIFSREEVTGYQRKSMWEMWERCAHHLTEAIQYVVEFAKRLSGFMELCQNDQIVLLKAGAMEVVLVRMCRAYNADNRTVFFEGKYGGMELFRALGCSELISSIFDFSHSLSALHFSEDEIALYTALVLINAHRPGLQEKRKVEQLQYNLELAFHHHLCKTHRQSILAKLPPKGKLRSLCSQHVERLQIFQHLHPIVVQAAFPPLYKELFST
The experiment in a line: RORγ-Ligand Binding Domain (LBD) TR-FRET Assay. Type of assay: biochemical. Particulars: RORγ-LBD TR-FRET. The procedure, abridged: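 Compounds, diluted in DMSO and then in assay buffer (1% DMSO final), were combined with His-tagged RORγ-LBD lysate at roughly 3 nM final and a 200 nM biotinylated SRC1 LXXLL peptide. Ursolic acid was included at 2 μM final. Coactivator recruitment was detected by TR-FRET.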
(In TR-FRET formats the signal depends on donor and acceptor labels being close together.)

Another assay addresses T2, Gal4-RORγ-LBD (Homo sapiens, UniProt P51449).
T2 construct: expressed in transfected cells
T2 sequence (P51449 269-508 limits assumed): T1 sequence (P51449 269-508 limits assumed)
In words: Gal4-RORγ Luciferase Reporter Assay in HEK-293T Cells. Type of assay: cell-based. Particulars: HEK-293 cells, luciferase reporter, with ursolic acid. The procedure, abridged: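 Max Response was taken as the upper plateau of a 4-parameter logistic fit of luciferase signal, normalized to 100 for wells without ursolic acid or compound. Transiently Gal4-RORγ-LBD/Gal4-luc transfected HEK-293 cells carrying […] ursolic acid were incubated with test compounds (0.2% DMSO) overnight at 37 °C and read with One-Glo.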

Each structure is given as a SMILES string. Where only a bound is given, the exact number is not on record here.

As for `COC(=O)CC[C@H]1CN(S(=O)(=O)c2c(Cl)nc3sccn23)c2cc(/C=C(\C)c3c(F)cccc3Cl)ccc2O1` [Example 86V, (S)-methyl 3-(6-(2-(2-chloro-6-fluorophenyl)prop-1-en-1-yl)-4-((6-chloroimidazo[2,1-b]thiazol-5-yl)sulfonyl)-3,4-dihydro-2H-benzo[b][1,4]oxazin-2-yl)propanoate], the figures for the EC50 on RORγ-LBD and at Gal4-RORγ-LBD were < 500 nM and 500 to 5000 nM, respectively.
As to `C/C(=C\c1ccc2c(c1)N(S(=O)(=O)c1cn(C(F)F)nc1C)C[C@H](CCC(=O)O)O2)c1c(F)cccc1Cl` [Example 86W, (S,E)-3-(6-(2-(2-chloro-6-fluorophenyl)prop-1-en-1-yl)-4-((1-(difluoromethyl)-3-methyl-1H-pyrazol-4-yl)sulfonyl)-3,4-dihydro-2H-benzo[b][1,4]oxazin-2-yl)propanoic acid], the EC50 (usually the concentration giving half of the maximal effect) was < 500 nM at RORγ-LBD and > 10000 nM at Gal4-RORγ-LBD.
Taken in the same sequence, the figures for `COC(=O)CC[C@H]1CN(S(=O)(=O)c2cn(C(F)F)nc2C)c2cc(/C=C(\C)c3c(F)cccc3Cl)ccc2O1` [Example 86X, (S)-methyl 3-(6-(2-(2-chloro-6-fluorophenyl)prop-1-en-1-yl)-4-((1-(difluoromethyl)-3-methyl-1H-pyrazol-4-yl)sulfonyl)-3,4-dihydro-2H-benzo[b][1,4]oxazin-2-yl)propanoate] were < 500 nM and 500 to 5000 nM.
Consider `COC(=O)CC[C@H]1CN(S(=O)(=O)c2cccc(C(F)(F)F)c2)c2cc(/C=C(\C)c3ccccc3Cl)ccc2O1` [Example 86Z, (S,E)-methyl 3-(6-(2-(2-chlorophenyl)prop-1-en-1-yl)-4-((3-(trifluoromethyl)phenyl)-sulfonyl)-3,4-dihydro-2H-benzo[b][1,4]oxazin-2-yl)propanoate], for which the EC50 on RORγ-LBD and on Gal4-RORγ-LBD was < 500 nM in each case.
With `CCOc1nn(CC)cc1S(=O)(=O)N1C[C@H](CCC(=O)OC)Oc2ccc(/C=C/c3c(F)cccc3C(F)(F)F)cc21` [Example 87, Methyl (S,E)-3-(4-((3-ethoxy-1-ethyl-1H-pyrazol-4-yl)sulfonyl)-6-(2-fluoro-6-(trifluoromethyl)styryl)-3,4-dihydro-2H-benzo[b][1,4]oxazin-2-yl)propanoate], the half-maximal effective concentration (EC50) on RORγ-LBD is < 500 nM; at Gal4-RORγ-LBD it was 500 to 5000 nM.
In the case of `CCOc1nn(CC)cc1S(=O)(=O)N1C[C@H](CCC(=O)O)Oc2ccc(/C=C/c3c(F)cccc3C(F)(F)F)cc21` [Example 88, (S,E)-3-(4-((3-Ethoxy-1-ethyl-1H-pyrazol-4-yl)sulfonyl)-6-(2-fluoro-6-(trifluoromethyl)styryl)-3,4-dihydro-2H-benzo[b][1,4]oxazin-2-yl)propanoic acid], the EC50 at RORγ-LBD is < 500 nM; at Gal4-RORγ-LBD it was 500 to 5000 nM.
On to `O=C(O)CC[C@H]1CN(S(=O)(=O)c2cccc(OC(F)F)c2)c2cc(/C=C/c3c(F)cccc3Cl)ccc2O1` [Example 89A, (S,E)-3-(6-(2-chloro-6-fluorostyryl)-4-((3-(difluoromethoxy)phenyl)sulfonyl)-3,4-dihydro-2H-benzo[b][1,4]oxazin-2-yl)propanoic acid], for which the EC50 at RORγ-LBD was < 500 nM; at Gal4-RORγ-LBD it was 500 to 5000 nM.
Regarding `CCOc1nn(CC)cc1S(=O)(=O)N1C[C@H](CCC(=O)O)Oc2ccc(/C=C/c3cccc(Cl)n3)cc21` [Example 89AA, (S,E)-3-(6-(2-(6-chloropyridin-2-yl)vinyl)-4-((3-ethoxy-1-ethyl-1H-pyrazol-4-yl)sulfonyl)-3,4-dihydro-2H-benzo[b][1,4]oxazin-2-yl)propanoic acid], the figures for the concentration for a half-maximal effect (EC50) on RORγ-LBD and on Gal4-RORγ-LBD were 500 to 5000 nM and > 10000 nM, respectively.
On to `CCOc1nn(CC)cc1S(=O)(=O)N1C[C@H](CCC(=O)OC)Oc2ccc(/C=C/c3cccc(Cl)n3)cc21` [Example 89AB, (S,E)-methyl 3-(6-(2-(6-chloropyridin-2-yl)vinyl)-4-((3ethoxy-1-ethyl-1H-pyrazol-4-yl)sulfonyl)-3,4-dihydro-2H-benzo[b][1,4]oxazin-2-yl)propanoate], for which the EC50 is 500 to 5000 nM on RORγ-LBD and > 10000 nM at Gal4-RORγ-LBD.
Take `Cc1cccc(C)c1/C=C/c1ccc2c(c1)N(S(=O)(=O)c1cccc(OC(F)F)c1)C[C@H](CCC(=O)O)O2` [Example 89AC, (S,E)-3-(4-((3-(difluoromethoxy)phenyl)sulfonyl)-6-(2,6-dimethylstyryl)-3,4-dihydro-2H-benzo[b][1,4]-oxazin-2-yl)propanoic acid]: the EC50 is < 500 nM at RORγ-LBD and 500 to 5000 nM at Gal4-RORγ-LBD.
For `CCOc1nn(CC)cc1S(=O)(=O)N1C[C@H](CCC(=O)O)Oc2ccc(/C=C/c3c(F)cccc3F)cc21` [Example 89AE, (S,E)-3-(6-(2,6-difluorostyryl)-4-((3-ethoxy-1-ethyl-1H-pyrazol-4-yl)sulfonyl)-3,4-dihydro-2H-benzo[b][1,4]-oxazin-2-yl)propanoic acid], the values for the EC50 at RORγ-LBD and on Gal4-RORγ-LBD were < 500 nM and 500 to 5000 nM, respectively.
Take `CCOc1nn(CC)cc1S(=O)(=O)N1C[C@H](CCC(=O)OC)Oc2ccc(/C=C/c3c(F)cccc3F)cc21` [Example 89AF, (S,E)-methyl 3-(6-(2,6-difluorostyryl)-4-((3-ethoxy-1-ethyl-1H-pyrazol-4-yl)sulfonyl)-3,4-dihydro-2H-benzo[b][1,4]oxazin-2-yl)propanoate]: the values for the 50% effective concentration (EC50) on RORγ-LBD and at Gal4-RORγ-LBD were < 500 nM and > 10000 nM, respectively.
`CCOc1nn(CC)cc1S(=O)(=O)N1C[C@H](CCC(=O)O)Oc2ccc(/C=C/c3c(C)cccc3F)cc21` [Example 89AG, (S,E)-3-(4-((3-ethoxy-1-ethyl-1H-pyrazol-4-yl)sulfonyl)-6-(2-fluoro-6-methylstyryl)-3,4-dihydro-2H-benzo[b][1,4]-oxazin-2-yl)propanoic acid]: the concentration giving a half-maximal response (EC50) at RORγ-LBD and on Gal4-RORγ-LBD was < 500 nM each time.
As for `CCOc1nn(CC)cc1S(=O)(=O)N1C[C@H](CCC(=O)OC)Oc2ccc(/C=C/c3c(C)cccc3F)cc21` [Example 89AH, (S,E)-methyl 3-(4-((3-ethoxy-1-ethyl-1H-pyrazol-4-yl)sulfonyl)-6-(2-fluoro-6-methylstyryl)-3,4-dihydro-2H-benzo[b][1,4]-oxazin-2-yl)propanoate], the EC50 on RORγ-LBD and on Gal4-RORγ-LBD was < 500 nM in each case.
For the compound `O=C(O)CC[C@H]1CN(S(=O)(=O)c2cccc(OC(F)F)c2)c2cc(/C=C/c3c(F)cccc3C(F)(F)F)ccc2O1` [Example 89AI, (S,E)-3-(4-((3-(difluoromethoxy)phenyl)sulfonyl)-6-(2-fluoro-6-(trifluoromethyl)-styryl)-3,4-dihydro-2H-benzo[b][1,4]oxazin-2-yl)propanoic acid], the EC50 on RORγ-LBD is < 500 nM; at Gal4-RORγ-LBD, 500 to 5000 nM.
Consider `COC(=O)CC[C@H]1CN(S(=O)(=O)c2cccc(OC(F)F)c2)c2cc(/C=C/c3c(F)cccc3C(F)(F)F)ccc2O1` [Example 89AJ, (S,E)-methyl 3-(4-((3-(difluoromethoxy)phenyl)sulfonyl)-6-(2-fluoro-6-(trifluoromethyl)-styryl)-3,4-dihydro-2H-benzo[b][1,4]oxazin-2-yl)propanoate], for which the values for the EC50 at RORγ-LBD and at Gal4-RORγ-LBD were < 500 nM and 500 to 5000 nM, respectively.
Turning to `COC(=O)CC[C@H]1CN(S(=O)(=O)c2cc(Cl)cnc2OCCO)c2cc(/C=C/c3c(F)cccc3Cl)ccc2O1` [Example 89AK, methyl (S,E)-3-(4-((5-chloro-2-(2-hydroxyethoxy)pyridin-3-yl)sulfonyl)-6-(2-chloro-6-fluorostyryl)-3,4-dihydro-2H-benzo[b][1,4]oxazin-2-yl)propanoate], the EC50 on RORγ-LBD was < 500 nM; on Gal4-RORγ-LBD, 500 to 5000 nM.
As for `O=C(O)CC[C@H]1CN(S(=O)(=O)c2cc(Cl)cnc2OCCO)c2cc(/C=C/c3c(F)cccc3Cl)ccc2O1` [Example 89AL, (S,E)-3-(4-((5-chloro-2-(2-hydroxyethoxy)pyridin-3-yl)sulfonyl)-6-(2-chloro-6-fluorostyryl)-3,4-dihydro-2H-benzo[b][1,4]oxazin-2-yl)propanoic acid], the values for the EC50 on RORγ-LBD and on Gal4-RORγ-LBD were < 500 nM and 500 to 5000 nM, respectively.
The like results for `CCOc1nn(CC)cc1S(=O)(=O)N1C[C@H](CCC(=O)O)Oc2ccc(/C=C/c3ccccc3F)cc21` [Example 89AM, (S,E)-3-(4-((3-ethoxy-1-ethyl-1H-pyrazol-4-yl)sulfonyl)-6-(2-fluorostyryl)-3,4-dihydro-2H-benzo[b][1,4]oxazin-2-yl)propanoic acid] were, in that order, < 500 nM and > 10000 nM.
Taken in the same sequence, the figures for `CCOc1nn(CC)cc1S(=O)(=O)N1C[C@H](CCC(=O)OC)Oc2ccc(/C=C/c3ccccc3F)cc21` [Example 89AN, (S,E)-methyl 3-(4-((3-ethoxy-1-ethyl-1H-pyrazol-4-yl)sulfonyl)-6-(2-fluorostyryl)-3,4-dihydro-2H-benzo[b][1,4]oxazin-2-yl)propanoate] were 500 to 5000 nM and > 10000 nM.
In the case of `O=C(O)CC[C@H]1CN(S(=O)(=O)c2cccc(OC(F)F)c2)c2cc(/C=C/c3ccccc3C(F)(F)F)ccc2O1` [Example 89AO, (S,E)-3-(4-((3-(difluoromethoxy)phenyl)sulfonyl)-6-(2-(trifluoromethyl)styryl)-3,4-dihydro-2H-benzo[b][1,4]oxazin-2-yl)propanoic acid], the values for the EC50 on RORγ-LBD and at Gal4-RORγ-LBD were < 500 nM and 500 to 5000 nM, respectively.

The values are drawn from US9896441B2 (Lycera Corporation, priority 2014, dated 2018).
